Results on three compounds are retold here after US10112933B2, “Methods and compositions for treatment of fibrosis” (Baylor College of Medicine, priority 2013, dated 2018).

Structures are written as SMILES. pIC50: −log10 of the molar value.

The test deals with MEF/GFP-Stat3α cells. Description: HTFM cytoplasmic-to-nuclear translocation of GFP-Stat3α. The test is classed as cell-based, murine. Conditions: for pIC50: Mus musculus, 0.5 h, MEF/GFP-Stat3α, IL-6 200 ng/ml and IL-6sR 250 ng/ml 30 min, read-out: HTM IC50 (ligand-mediated nuclear translocation of GFP-Stat3α). As to the method:
Coverslips were examined by confocal fluorescent microscopy using filters to detect GFP (column one), DAPI (column two) or both (merge; column three). In panel B, MEF-GFP-Stat3 cells were grown in 96-well plates with optical glass bottoms and pretreated with the indicated compound at the indicated concentrations in quadruplicate for 1 hour then stimulated with IL-6 (200 ng/ml) and IL-6sR (250 ng/ml) for 30 minutes. Cells were fixed and the plates were examined by high-throughput microscopy to determine the fluorescence intensity in the nucleus (FLIN) and the % ΔFLINMax was calculated as described in Example 1. Data shown are mean±SD and are representative of 2 or more studies. Best-fit curves were generated based on 4 Parameter Logistic Model/Dose Response One Site/XLfit 4.2, IDBS and were used to calculate IC50 (Table 1).
Confocal and high-throughput fluorescence microscopy. Confocal and highthroughput fluorescence microscopy (HTFM) of MEF/GFP-Stat3α cells were performed as described (Huang et al., 2007). Briefly, for confocal fluorescence microscopy, cells were grown in 6-well plates containing a cover slip. For HTFM, cells were seeded into 96-well CC3 plates at a density of 5,000 cells/well using an automated plating system. Cells were cultured under standard conditions until 85-90% confluent. Cells were pretreated with compound for 1 hour at 37° C. then stimulated with IL-6 (200 ng/ml) and IL-6sR (250 ng/ml) for 30 minutes. Cells were fixed with 4% formaldehyde in PEM Buffer (80 mM Potassium PIPES, pH 6.8, 5 mM EGTA pH 7.0, 2 mM MgCl2) for 30 minutes at 4° C., quenched in 1 mg/ml of NaBH4 (Sigma) in PEM buffer and counterstained for 1 min in 4,6-diamidino-2-phenylindole (DAPI; Sigma; 1 mg/ml) in PEM buffer. Cover slips were examined by confocal fluorescent microscopy. Plates were analyzed by automated HTFM using the Cell Lab IC Image Cytometer (IC100) platform and CytoshopVersion 2.1 analysis software (Beckman Coulter). Nuclear translocation is quantified by using the fraction localized in the nucleus (FLIN) measurement (Sharp et al., 2006).
Following its phosphorylation on Y705, Stat3 undergoes a change in conformation from head-to-head dimerization mediated through its N-terminal oligomerization domain to tail-to-tail dimerization mediated by reciprocal SH2/pY705-peptide ligand interactions. This conformational change is followed by nuclear accumulation. Compounds that targeted SH2/pY-peptide ligand interactions of Stat3 would be expected to inhibit nuclear accumulation of Stat3. […]
EXP IIB. High throughput fluorescence microscopy (HTFM), cytoplasm-to-nucleus translocation inhibition assays. […] Plates are analyzed by automated HTFM using the Cell Lab IC Image Cytometer (IC100) platform and CytoshopVersion 2.1 analysis software (Beckman Coulter). […]

For the compound `CCOc1cc(C=C2C(=O)c3ccccc3C2=O)cc(Cl)c1OCc1cccc(C(=O)O)c1` [Cpd3-2, 3-({2-chloro-4-[(1,3-dioxo-1,3-dihydro-2H-inden-2-ylidene)methyl]-6-ethoxyphenoxy}methyl)benzoic acid], the pIC50 (usually −log10 of the IC50, conventionally taken in molar units) was 3.82.
Same read-out and setting: the figure for `O=C(O)c1ccc(C=CC(=O)c2ccc3c(c2)OCCO3)cc1` [Cpd3, 4-[3-(2,3-dihydro-1,4-benzodioxin-6-yl)-3-oxo-1-propen-1-yl]benzoic acid] is 3.88.
For `CCN1C(=O)C(=Cc2ccc(-c3cc(C(=O)O)ccc3Cl)o2)C(=O)N(CC)C1=S` [Cpd30-12, 4-chloro-3-{5-[(1,3-diethyl-4,6-dioxo-2-thioxotetrahydro-5(2H)-pyrimidinylidene)methyl]-2-furyl}benzoic acid], the pIC50 was less than 3.52. For the setting “MEF/GFP-Stat3α cells”, the “blocked ligand-mediated nuclear translocation of GFP-Stat3” value is on record as “not”.
